What was measured:
Format in all cases: cell-based, human
[1] = test system: T/C28a2 cells; assay: Shear-induced PGE2 production (EIA of culture media); conditions: D3T 5 μM; fluid shear 48 hours
Description: (§1) Cell Culture and Shear Stress Exposure: Human T/C28a2 chondrocytic cells were grown (37° C., 5% CO2) in 1:1 Ham's F-12/DMEM (Biowhittaker) supplemented with 10% FBS. Prior to shear exposure, T/C28a2 cells were incubated for 24 hours in serum-free medium containing 1% Nutridoma-SP (Roche), a low-protein serum replacement that maintains chondrocyte phenotype. Primary HUVECs were cultured as described (Goldring, M. B., 2004). T/C28a2 cells were exposed to shear stress in media containing 1% Nutridoma by use of a parallel-plate flow chamber with a recirculating flow loop (37° C., 5% CO2) (10). HUVECs were treated similarly by circulating media supplemented with 10% FBS.
(§2) Cell Viability, NQO1 activity, Glutathione levels, and Prostaglandin (PG)E2 production: Cell viability was monitored with the MTT assay (Gao, X. et al. 2001). NQO1 activity and total GSH (oxidized and reduced) levels of cell lysates were determined in 96-well microtiter plates. PGE2 levels were determined in media by the Prostaglandin E2 monoclonal EIA kit (Cayman Chemical).

[2] = test system: ARE-driven NQO1 promoter; assay: Promoter activity assay (pNQO1/ARE-luc); conditions: transfected T/C28a2 cells; SFN 1.25 μM or D3T 5 μM, 24 h, static conditions
Description: Transient Transfection and Plasmid Constructs: T/C28a2 cells were transfected with 10 μg of plasmid and 2 μg of control with Lipofectamine and Plus Reagent (Invitrogen). Cells were allowed to recover for 3 hours, incubated overnight in medium containing 1% Nutridoma, and exposed to the indicated treatments. Efficiency was assessed by flow cytometry with pEGFP-N2 (BD Biosciences). pCMV-mNrf2 and pNQO1/ARE-luc constructs were provided by N. Wakabayashi (Wakabayashi, N. et al. 2004). Igarashi, K., et al. 1994), and pBJ M-pl 10*-myc, pBJ M<<pl 10-UR, and pCG pi 10 wt constructs were provided by A. Kippel (Hu, Q., et al. 1995).
Promoter Activity Assay: T/C28a2 cells were transfected with 10 μg of pNQO1/ARE-luc and 1 μg each of pEGFP-N2 and pSV40-hRL2 (Promega) to normalize transfection efficiency. Firefly and Renilla luciferase activities were measured using the Dual-Luciferase Report Assay kit (Promega).

[3] = test system: COX-I; assay: Intracellular COX-1 protein staining, flow cytometry; conditions: D3T 5 μM; static or laminar shear 5 or 20 dyn/cm^2, 48 hours
Description: as §1
(§3) Intracellular Protein Staining and Western Blots: T/C28a2 cells were fixed in 1.0% formaldehyde for 10 min at 37° C., permeabilized in 90% methanol for 20 minutes on ice, and incubated at 25° C. for 10 min in blocking buffer (0.5% BSA). Specimens were then incubated with fluorophore-conjugated monoclonal antibodies specific for COX-I (COX-1/FITC) and COX-2 (COX-2/PE) (Cayman Chemical) or isotype controls (BD Biosciences) for 30 min, washed 2× in blocking buffer, and analyzed by flow cytometry. For Western blots, total cell lysates were subjected to SDS/PAGE, transferred to a membrane, and probed with caspase-9 and β-actin antibodies (Upstate).

[4] = test system: caspase-9; assay: Caspase-9 immunoblot analysis; conditions: high shear 20 dyn/cm^2
Description: as §1, §3

[5] = test system: NQO1; assay: NQO1 enzyme activity in shear-activated chondrocytes; conditions: T/C28a2, high shear (20 dyn/cm^2); SFN 1.25 μM, D3T 5 μM, CAY10404 6.75 μM, NS398 30 μM
Description: as §1, §2

[6] = test system: COX-2; assay: Intracellular COX-2 protein staining, flow cytometry; conditions: D3T 5 μM; 20 dyn/cm^2, 48 hours
Description: as §1, §3

[7] = test system: T/C28a2 chondrocytic cells; assay: DNA microarray analysis of shear-induced mRNA response of chondrocytes; design: COX-1 (cyclooxygenase-1) microarray intensity ratio (shear/static): dose or concentration left out as unconfirmed; conditions: 20 dyn/cm2, 48 hr, mean ± SD
Description: as §1
Microarray Hybridization and Analysis: Cy-3- and Cy-5-labeled probes were mixed, dried, resuspended in hybridization buffer (50% formamide, 10×SSC, 0.2% SDS, COT-I DNA, Poly(A)-DNA), and denatured. The probes were added to microarray slides printed with a set of 32,448 or 39,936 expressed sequence tags (ESTs), allowed to hybridize at 42° C. overnight, and processed as described (Abulencia, J. P., et al. 2003. Hegde, P. et al. 2000). Expression ratios were derived using TIGR Spotfinder (Abulencia, J. P. et al. 2003, Hegde, P. et al. 2000). Differentially expressed genes were identified by Significance Analysis of Microarrays, and analyzed with the software TMEV (Abulencia, J. P. et al. 2003).
Quantitative Real-Time PCR (qRT-PCR) was used to verify DNA microarray data. Incorporation of SYBR Green into PCR products was monitored with the 7900HT detection system.

[8] = test system: T/C28a2 cells; assay: Shear-induced apoptosis: DNA fragmentation (TUNEL) and mitochondrial membrane depolarization; conditions: 20 dyn/cm^2, 48 h; D3T 5 μM, CAY10404 6.75 μM, NS398 30 μM
Description: as §1
DNA Fragmentation and Mitochondrial Depolarization: For DNA fragmentation, cells were fixed in 4% paraformaldehyde for 1 hour at 25° C., washed 2× in PBS, and permeabilized briefly in 0.1% Triton-X100/0.1% sodium citrate on ice. Subsequently, cells were washed 2× in PBS, labeled using the In Situ Cell Death Kit (Roche), and analyzed by flow cytometry. To quantify Mitochondrial Membrane Potential (MMP), cells were labeled using the MitoProbe JC-I Kit (Molecular Probes).

[9] = 5 μM D3T (shear) vs 0.1% DMSO (static)

S=c1ccss1 [D3T, 1,2-dithiole-3-thione]
PGE2 production in chondrocytes subjected to high shear [1]: nearly abrogated | ARE-driven NQO1 promoter luciferase activity [2]: increases the luciferase activity | COX-I expression [3]: remains unchanged | expression of proform (46 kDa) and active form (34 kDa) of caspase-9 [4]: substantially reduced expression | shear-induced suppression of NQO1 activity [5]: likewise effective in suppressing the shear-mediated reduction of phase 2 enzyme activity | COX-2 protein expression in chondrocytes subjected to high shear [6]: nearly abrogated | COX-2 (cyclooxygenase-2) microarray intensity ratio (shear/static) [7, 9]: 1.3 ± 0.2 | Caspase-9 precursor microarray intensity ratio (shear/static) [7, 9]: 0.8 ± 0.1 | GCLR (γ-glutamylcysteine ligase) microarray intensity ratio (shear/static) [7, 9]: 1.6 ± 0.1 | GST μ1 (glutathione S-transferase) microarray intensity ratio (shear/static) [7, 9]: 1.6 ± 0.1 | Glutathione reductase microarray intensity ratio (shear/static) [7, 9]: 2.8 ± 0.1 | HO-1 (Heme Oxygenase-1) microarray intensity ratio (shear/static) [7, 9]: 1.2 ± 0.1 | HO-2 (Heme Oxygenase-2) microarray intensity ratio (shear/static) [7, 9]: 0.9 ± 0.1 | JNK2 (c-jun N-terminal kinase 2) microarray intensity ratio (shear/static) [7, 9]: 1.6 ± 0.1 | NQO1 (NAD(P)H:quinone reductase-1) microarray intensity ratio (shear/static) [7, 9]: 1.3 ± 0.1 | Nrf2 (NF-E2 related factor 2) microarray intensity ratio (shear/static) [7, 9]: 1.3 ± 0.1 | PI3K (phosphoinositol kinase 3) microarray intensity ratio (shear/static) [7, 9]: 0.8 ± 0.2 | Transcription Factor AP-1 (c-jun) microarray intensity ratio (shear/static) [7, 9]: 1.4 ± 0.1 | UDP-glucuronosyltransferase microarray intensity ratio (shear/static) [7, 9]: 1.0 ± 0.1 | COX-1 (cyclooxygenase-1) microarray intensity ratio (shear/static) [7]: 1.3 ± 0.1 | shear-induced apoptosis (DNA fragmentation TUNEL, mitochondrial membrane depolarization MMP) [8]: essentially abrogated

Source: patent US20160038485A1, “PHASE 2 INDUCERS AND RELATED SIGNALING PATHWAYS PROTECT CARTILAGE AGAINST INFLAMMATION, APOPTOSIS AND STRESS” (THE JOHNS HOPKINS UNIVERSITY, priority 2006, published 2016)
